In ChEMBL document CHEMBL5724914, “Linking interpersonal differences in gut microbiota composition and drug biotransformation activity” (2024):

How the values were obtained:
[1] = (§1) The drug is tested on WLS-240 corresponding to human gut metagenome with ENA study accession number: PRJEB37062 and ENA sample accession number: ERS12561773 for biotransformation under anaerobic condition. The drug concentrations were measured over 9 timepoints collected between 0 and 24 hours of incubation by liquid-chromatography-coupled mass spectrometry (LC–MS); conditions: 2 µM
[2] = as §1, with “WLS-170” for “WLS-240”, “ERS12561762” for “ERS12561773”; conditions: 2 µM
[3] = as §1, with “WLS-098” for “WLS-240”, “ERS12561754” for “ERS12561773”; conditions: 2 µM
[4] = as §1, with “WLS-039” for “WLS-240”, “ERS12561746” for “ERS12561773”; conditions: 2 µM
[5] = as §1, with “WLS-038” for “WLS-240”, “ERS12561745” for “ERS12561773”; conditions: 2 µM
[6] = as §1, with “WLS-027” for “WLS-240”, “ERS12561744” for “ERS12561773”; conditions: 2 µM
[7] = as §1, with “WLS-010” for “WLS-240”, “ERS12561743” for “ERS12561773”; conditions: 2 µM
[8] = as §1, with “WLS-007” for “WLS-240”, “ERS12561742” for “ERS12561773”; conditions: 2 µM
[9] = human gut metagenome, 24 h, 2 µM
[10] = human gut metagenome, 24 h, 2 µM; remark: listed apart in the source
[11] = human gut metagenome, 24 h, 2 µM; remark: listed apart in the source
[12] = human gut metagenome, 24 h, 2 µM; remark: listed apart in the source
[13] = human gut metagenome, 24 h, 2 µM; remark: listed apart in the source
[14] = human gut metagenome, 24 h, 2 µM; remark: listed apart in the source
[15] = human gut metagenome, 24 h, 2 µM; remark: listed apart in the source
[16] = as §1, with “Z-026” for “WLS-240”, “to” for “to human gut”, “ERS12561825” for “ERS12561773”; conditions: 2 µM
[17] = as §1, with “Z-002” for “WLS-240”, “rabbit” for “human”, “ERS12561802” for “ERS12561773”; conditions: 2 µM
[18] = as §1, with “Z-010” for “WLS-240”, “to” for “to human gut”, “ERS12561810” for “ERS12561773”; conditions: 2 µM
[19] = as §1, with “Z-011” for “WLS-240”, “mouse” for “human”, “ERS12561811” for “ERS12561773”; conditions: 2 µM
Note: call rule not given here.

Row | SMILES | Bacterial Biotransformation [1] | Bacterial Biotransformation [2] | Bacterial Biotransformation [3] | Bacterial Biotransformation [4] | Bacterial Biotransformation [5] | Bacterial Biotransformation [6] | Bacterial Biotransformation [7] | Bacterial Biotransformation [8] | Bacterial Biotransformation [9] | Bacterial Biotransformation [10] | Bacterial Biotransformation [11] | Bacterial Biotransformation [12] | Bacterial Biotransformation [13] | Bacterial Biotransformation [14] | Bacterial Biotransformation [15] | Bacterial Biotransformation [16] | Bacterial Biotransformation [17] | Bacterial Biotransformation [18] | Bacterial Biotransformation [19]
1 | OC(CCN1CCCCC1)(c1ccccc1)C1CC2C=CC1C2 (stereo not given) [BIPERIDEN] | Compound NOT metabolized | Compound metabolized | Compound metabolized | Compound NOT metabolized | Compound NOT metabolized | Compound NOT metabolized | Compound NOT metabolized | Compound NOT metabolized | Compound NOT metabolized | Compound NOT metabolized | Compound metabolized | Compound NOT metabolized | Compound NOT metabolized | Compound metabolized | Compound NOT metabolized | – | – | – | –
2 | CN1CCc2cccc3c2[C@H]1Cc1ccc(O)c(O)c1-3 [APOMORPHINE] | Compound NOT metabolized | Compound NOT metabolized | Compound NOT metabolized | Compound NOT metabolized | Compound NOT metabolized | – | Compound NOT metabolized | Compound NOT metabolized | Compound NOT metabolized | Compound NOT metabolized | Compound NOT metabolized | Compound NOT metabolized | Compound NOT metabolized | Compound NOT metabolized | Compound NOT metabolized | Compound NOT metabolized | Compound NOT metabolized | – | –
3 | CN1CCN(CC/C=C2/c3ccccc3Sc3ccc(S(=O)(=O)N(C)C)cc32)CC1 [THIOTHIXENE] | Compound metabolized | Compound metabolized | Compound metabolized | Compound metabolized | Compound metabolized | Compound metabolized | Compound metabolized | Compound NOT metabolized | Compound metabolized | Compound metabolized | Compound metabolized | Compound metabolized | Compound NOT metabolized | Compound metabolized | Compound metabolized | – | – | – | –
4 | COC(=O)C1=C(C)NC(C)=C(C(=O)OC(C)C)C1c1cccc2nonc12 (stereo not given) [ISRADIPINE] | Compound metabolized | Compound metabolized | Compound metabolized | – | Compound NOT metabolized | Compound metabolized | Compound metabolized | Compound metabolized | Compound metabolized | Compound NOT metabolized | Compound metabolized | Compound NOT metabolized | Compound NOT metabolized | Compound metabolized | Compound metabolized | – | Compound metabolized | – | –
5 | C#C[C@]1(O)CC[C@H]2[C@@H]3CCC4=Cc5oncc5C[C@]4(C)[C@H]3CC[C@@]21C [DANAZOL] | Compound metabolized | – | – | Compound metabolized | Compound metabolized | Compound metabolized | Compound metabolized | Compound metabolized | Compound metabolized | – | – | – | – | – | Compound metabolized | Compound metabolized | – | Compound metabolized | –
6 | Cc1nc2n(c(=O)c1CCN1CCC(c3noc4cc(F)ccc34)CC1)CCCC2O (stereo not given) [PALIPERIDONE] | Compound metabolized | Compound NOT metabolized | Compound metabolized | Compound metabolized | Compound metabolized | Compound metabolized | Compound metabolized | Compound metabolized | Compound metabolized | Compound metabolized | Compound metabolized | Compound metabolized | Compound metabolized | Compound metabolized | Compound NOT metabolized | Compound NOT metabolized | – | Compound NOT metabolized | Compound NOT metabolized
7 | C[C@@H]1CC[C@H]2[C@@H](C)C(=O)O[C@@H]3O[C@@]4(C)CC[C@@H]1[C@]32OO4 [ARTEMISININ] | Compound metabolized | Compound metabolized | Compound metabolized | Compound metabolized | Compound metabolized | Compound metabolized | Compound metabolized | Compound metabolized | Compound metabolized | – | Compound metabolized | Compound metabolized | Compound metabolized | Compound metabolized | Compound NOT metabolized | Compound metabolized | – | – | –
8 | CN1C[C@H](C(=O)N[C@]2(C)O[C@@]3(O)[C@@H]4CCCN4C(=O)[C@H](Cc4ccccc4)N3C2=O)C=C2c3cccc4[nH]cc(c34)C[C@H]21.CN1C[C@H](C(=O)N[C@]2(C)O[C@@]3(O)[C@@H]4CCCN4C(=O)[C@H](Cc4ccccc4)N3C2=O)C=C2c3cccc4[nH]cc(c34)C[C@H]21.O=C(O)C(O)C(O)C(=O)O [ERGOTAMINE TARTRATE] | Compound metabolized | Compound metabolized | Compound metabolized | Compound metabolized | Compound NOT metabolized | Compound metabolized | Compound metabolized | Compound metabolized | Compound metabolized | Compound metabolized | Compound metabolized | Compound metabolized | Compound NOT metabolized | – | – | – | – | – | –
9 | CC(=O)O[C@]1(C(C)=O)CC[C@H]2[C@@H]3C=C(Cl)C4=CC(=O)[C@@H]5C[C@@H]5[C@]4(C)[C@H]3CC[C@@]21C [CYPROTERONE ACETATE] | Compound metabolized | Compound metabolized | Compound metabolized | Compound metabolized | Compound metabolized | Compound metabolized | Compound metabolized | Compound metabolized | Compound metabolized | Compound metabolized | Compound metabolized | Compound NOT metabolized | Compound metabolized | Compound metabolized | Compound metabolized | – | Compound metabolized | Compound metabolized | Compound metabolized
